In the NIST ThermoML archive (doi:10.1021/acs.jced.5b00011):
Numbers after ± are expanded uncertainties.

Conditions: Liquid, Ebulliometric method (Recirculating still)

CC(=O)N(C)C [N,N-dimethylethanamide]
vapor or sublimation pressure (439.25 K): 101.33 ± 0.58 kPa

c1ccccc1 [benzene]
vapor or sublimation pressure (353.25 K): 101.33 ± 0.55 kPa

C1CCCCC1 [cyclohexane]
vapor or sublimation pressure (353.85 K): 101.33 ± 0.55 kPa

C1=CCCCC1 [cyclohexene]
vapor or sublimation pressure (356.15 K): 101.33 ± 0.55 kPa
